According to patent US20250170107A1, “IMIDAZOPYRIDINE INHIBITORS OF TYROSINE KINASE” (BridGene Biosciences. Inc., priority 2022, published 2025):

Columns and labels:
KIT = target: T1, KIT (Homo sapiens, UniProt P10721); assay: Caliper mobility shift kinase inhibition assay, recombinant KIT; type: biochemical; conditions: recombinant KIT 0.9 nM, ATP 400 μM, incubation 17 hr (Table 2)
T1 construct: purchased BPS 40250

FLT3 = target: T2, FLT3 (Homo sapiens, UniProt P36888); assay: Caliper mobility shift kinase inhibition assay, recombinant FLT3; type: biochemical; conditions: recombinant FLT-3 0.1 nM, ATP 95 μM, incubation 3 hr, room temperature
T2 construct: purchased ThermoFisher PV3182
T2 sequence (P36888 27-993): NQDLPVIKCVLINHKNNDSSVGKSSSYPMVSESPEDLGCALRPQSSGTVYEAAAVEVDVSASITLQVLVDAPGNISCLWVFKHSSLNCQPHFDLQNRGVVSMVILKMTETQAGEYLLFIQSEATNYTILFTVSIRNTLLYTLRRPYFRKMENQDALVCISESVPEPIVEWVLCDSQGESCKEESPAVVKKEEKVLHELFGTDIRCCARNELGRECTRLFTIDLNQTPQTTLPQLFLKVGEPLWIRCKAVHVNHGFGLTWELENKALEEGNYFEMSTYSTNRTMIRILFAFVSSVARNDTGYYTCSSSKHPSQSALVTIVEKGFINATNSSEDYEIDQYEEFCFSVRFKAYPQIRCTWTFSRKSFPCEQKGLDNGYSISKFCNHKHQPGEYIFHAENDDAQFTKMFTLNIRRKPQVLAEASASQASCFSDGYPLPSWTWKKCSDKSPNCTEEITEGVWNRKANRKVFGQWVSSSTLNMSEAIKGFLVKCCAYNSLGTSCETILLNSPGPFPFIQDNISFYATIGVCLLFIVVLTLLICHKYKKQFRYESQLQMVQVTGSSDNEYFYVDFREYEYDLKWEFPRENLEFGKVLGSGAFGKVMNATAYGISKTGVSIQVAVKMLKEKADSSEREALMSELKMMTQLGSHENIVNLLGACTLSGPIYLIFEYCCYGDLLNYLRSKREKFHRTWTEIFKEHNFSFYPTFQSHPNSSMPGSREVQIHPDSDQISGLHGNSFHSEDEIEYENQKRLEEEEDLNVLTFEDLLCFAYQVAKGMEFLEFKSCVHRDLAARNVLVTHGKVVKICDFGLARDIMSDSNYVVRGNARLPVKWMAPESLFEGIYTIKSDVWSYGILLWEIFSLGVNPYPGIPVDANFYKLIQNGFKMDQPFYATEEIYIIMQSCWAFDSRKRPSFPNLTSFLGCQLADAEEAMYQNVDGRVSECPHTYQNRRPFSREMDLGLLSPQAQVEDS
Procedure: Compounds' inhibition of recombinant kinases (FLT3, KIT) was measured using Caliper mobility shift assay, which is based on the difference in capillary electrophoresis mobility of a fluorescent-tagged peptide as a result of a phosphorylation by the kinase under study. Reactions were started by the addition of various concentrations of a compound (originally in DMSO solution) to a kinase solution in assay buffer followed by addition of a mixture of ATP and a fluorescent-tagged peptide substrate in assay buffer. Concentrations of the enzyme, ATP and thepeptide were pre-optimized so that 15% substrate conversion to ensure initial velocity measurements. After incubation for 3 hours at room temperature, the kinase reaction was quenched by the addition of a concentrated EDTA solution before analysis on a LabChip EZ Reader II to yield percentage inhibition by comparing to the DMSO control. Table 2 below summarizes the assay conditions for the characterization of the kinase inhibition properties of the disclosed compounds.

MV4-11 = assay: Cell viability assay (CellTiter-Glo), FLT3 cell-based assay; conditions: MV4-11 cells, 72 hr at 37° C., 0.1% DMSO
Procedure: Cell viability assay was performed based on the following brief procedures. Cells were plated at the density of 5K/well with volume of 180 μL in 96-well white plate and clear bottom plates. 20 μL of veh. or compound was added at proper concentration to the well. The final volume is 200 μL, with final conc. of DMSO=0.1%, 11 points, triplicates. The cells were then treated at 37° C. in the TC incubator for 72 hr. Equal volume (200 μL) of CellTiter-Glo reagent (Promega) was added to the well and protect from light at room temperature for 15 min. The chemiluminescence was measured with EnSight (Perkin Elmer). GraphPad Prism non-linear regression, Log[inhibitor] response with four parameters were used to calculate GI50.

T1 sequence (P10721 26-976): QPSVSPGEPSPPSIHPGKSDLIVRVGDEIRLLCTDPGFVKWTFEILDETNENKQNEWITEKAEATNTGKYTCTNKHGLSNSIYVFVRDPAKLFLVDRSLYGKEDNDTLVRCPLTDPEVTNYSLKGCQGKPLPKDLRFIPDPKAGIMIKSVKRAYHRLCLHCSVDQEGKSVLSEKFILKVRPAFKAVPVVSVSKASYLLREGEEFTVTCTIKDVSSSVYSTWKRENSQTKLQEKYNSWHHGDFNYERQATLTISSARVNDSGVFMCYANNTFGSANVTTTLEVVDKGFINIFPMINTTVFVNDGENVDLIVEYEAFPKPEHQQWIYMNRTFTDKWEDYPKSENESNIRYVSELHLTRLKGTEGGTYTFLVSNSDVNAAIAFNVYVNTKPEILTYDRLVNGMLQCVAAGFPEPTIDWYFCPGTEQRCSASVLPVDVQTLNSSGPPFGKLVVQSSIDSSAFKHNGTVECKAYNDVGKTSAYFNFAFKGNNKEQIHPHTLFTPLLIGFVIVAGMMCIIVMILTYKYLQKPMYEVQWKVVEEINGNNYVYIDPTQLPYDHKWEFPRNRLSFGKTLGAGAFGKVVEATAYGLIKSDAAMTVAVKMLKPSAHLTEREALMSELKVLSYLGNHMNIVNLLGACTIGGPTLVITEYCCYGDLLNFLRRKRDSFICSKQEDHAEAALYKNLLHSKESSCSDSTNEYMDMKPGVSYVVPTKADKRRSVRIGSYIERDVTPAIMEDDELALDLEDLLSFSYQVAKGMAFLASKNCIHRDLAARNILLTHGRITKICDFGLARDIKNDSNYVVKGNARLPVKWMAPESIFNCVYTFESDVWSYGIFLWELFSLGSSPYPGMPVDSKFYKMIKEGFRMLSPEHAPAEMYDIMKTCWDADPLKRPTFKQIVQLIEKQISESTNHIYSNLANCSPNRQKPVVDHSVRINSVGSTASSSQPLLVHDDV

Row | Compound | IC50 (KIT) [nM] | IC50 (FLT3) [nM] | GI50 (MV4-11; Homo sapiens) [nM] | GI50 (MV4-11) [nM]
1 | C=CC(=O)N1CCC[C@H]1C(=O)NCCn1cnc2cnc(Nc3ncc(-c4ccc(F)cc4)s3)cc21 [Example 5] | < 1 | < 1 | < 10 | –
2 | C=CC(=O)N1CCC[C@H]1C(=O)NCCn1cnc2cnc(Nc3ncc(-c4ccncc4F)s3)cc21 [Example 8, (2S)-N-[2-[6-[[5-(3-fluoro-4-pyridyl)thiazol-2-yl]amino]imidazo[4,5-c]pyridin-1-yl]ethyl]-1-prop-2-enoyl-pyrrolidine-2-carboxamide] | < 1 | < 1 | < 10 | –
3 | C=CC(=O)N1CCC[C@H]1C(=O)NCCn1cnc2cnc(Nc3ncc(-c4ncccc4F)s3)cc21 [Example 9, (2S)-N-[2-[6-[[5-(3-fluoro-2-pyridyl)thiazol-2-yl]amino]imidazo[4,5-c]pyridin-1-yl]ethyl]-1-prop-2-enoyl-pyrrolidine-2-carboxamide] | < 1 | < 1 | < 10 | –
4 | C=C(F)C(=O)N1CCC[C@H]1C(=O)NCCn1cnc2cnc(Nc3ncc(-c4ncccc4F)s3)cc21 [Example 10] | 10 to 100 | 1 to 10 | < 10 | –
5 | C/C=C\C(=O)N1CCC[C@H]1C(=O)NCCn1cnc2cnc(Nc3ncc(-c4ncccc4F)s3)cc21 [Example 11, (2S)-1-[(Z)-but-2-enoyl]-N-[2-[6-[[5-(3-fluoro-2-pyridyl)thiazol-2-yl]amino]imidazo[4,5-c]pyridin-1-yl]ethyl]pyrrolidine-2-carboxamide] | 100 to 1000 | 1 to 10 | 10 to 100 | –
6 | C=CC(=O)N1CCOC[C@H]1C(=O)NCCn1cnc2cnc(Nc3ncc(-c4ncccc4F)s3)cc21 [Example 12, (3S)-N-[2-[6-[[5-(3-fluoro-2-pyridyl)thiazol-2-yl]amino]imidazo[4,5-c]pyridin-1-yl]ethyl]-4-prop-2-enoyl-morpholine-3-carboxamide] | 10 to 100 | < 1 | < 10 | –
7 | C=CC(=O)N1C[C@H](O)C[C@H]1C(=O)NCCn1cnc2cnc(Nc3ncc(-c4ccc(F)cc4)s3)cc21 [Example 13, (2S,4R)-N-[2-[6-[[5-(4-fluorophenyl)thiazol-2-yl]amino]imidazo[4,5-c]pyridin-1-yl]ethyl]-4-hydroxy-1-prop-2-enoylpyrrolidine-2-carboxamide] | < 1 | < 1 | 10 to 100 | –
8 | (2S,3S)-1-(2-fluoroprop-2-enoyl)-N-[2-[6-[[5-(3-fluoro-2-pyridyl)thiazol-2-yl]amino]imidazo[4,5-c]pyridin-1-yl]ethyl]-3-hydroxy-pyrrolidine-2-carboxamide [Example 25] | 100 to 1000 | 10 to 100 | – | 10 to 100
9 | (3S)-4-[(E)-4-(dimethylamino)but-2-enoyl]-N-[2-[6-[[5-(5-fluoropyrimidin-4-yl)thiazol-2-yl]amino]imidazo[4,5-c]pyridin-1-yl]ethyl]morpholine-3-carboxamide [Example 23] | < 1 | < 1 | – | 10 to 100

Next, values leading:

Row | IC50 (KIT) [nM] | IC50 (FLT3) [nM] | GI50 (MV4-11; Homo sapiens) [nM] | GI50 (MV4-11) [nM] | Compound
10 | < 1 | < 1 | < 10 | – | C=CC(=O)N1C[C@@H](O)C[C@H]1C(=O)NCCn1cnc2cnc(Nc3ncc(-c4ccc(F)cc4)s3)cc21 [Example 14, (2S,4S)-N-[2-[6-[[5-(4-fluorophenyl)thiazol-2-yl]amino]imidazo[4,5-c]pyridin-1-yl]ethyl]-4-hydroxy-1-prop-2-enoylpyrrolidine-2-carboxamide]
11 | < 1 | < 1 | < 10 | – | C=CC(=O)N1CC[C@H](O)[C@H]1C(=O)NCCn1cnc2cnc(Nc3ncc(-c4ccc(F)cc4)s3)cc21 [Example 15, (2S,3S)-N-[2-[6-[[5-(4-fluorophenyl)thiazol-2-yl]amino]imidazo[4,5-c]72yridine-1-yl]ethyl]-3-hydroxy-1-prop-2-enoylpyrrolidine-2-carboxamide]
12 | 10 to 100 | 1 to 10 | 10 to 100 | – | C=CC(=O)N1C[C@H](O)C[C@H]1C(=O)NCCn1cnc2cnc(Nc3ncc(-c4ncncc4F)s3)cc21 [Example 21, (2S,4R)-N-[2-[6-[[5-(5-fluoropyrimidin-4-yl)thiazol-2-yl]amino]imidazo[4,5-c]pyridin-1-yl]ethyl]-4-hydroxy-1-prop-2-enoyl-pyrrolidine-2-carboxamide]
13 | < 1 | < 1 | < 10 | – | C=CC(=O)N1CCOC[C@H]1C(=O)NCCn1cnc2cnc(Nc3ncc(-c4ncncc4F)s3)cc21 [Example 22, (3S)-N-[2-[6-[[5-(5-fluoropyrimidin-4-yl)thiazol-2-yl]amino]imidazo[4,5-c]pyridin-1-yl]ethyl]-4-prop-2-enoyl-morpholine-3-carboxamide]
14 | < 1 | < 1 | 10 to 100 | – | C=CC(=O)N1CC[C@H](O)[C@H]1C(=O)NCCn1cnc2cnc(Nc3ncc(-c4ncccc4F)s3)cc21 [Example 24, (2S,3S)-N-[2-[6-[[5-(3-fluoro-2-pyridyl)thiazol-2-yl]amino]imidazo[4,5-c]pyridin-1-yl]ethyl]-3-hydroxy-1-prop-2-enoyl-pyrrolidine-2-carboxamide]
15 | < 1 | < 1 | 10 to 100 | – | CN(C)C/C=C/C(=O)N1CC[C@H](O)[C@H]1C(=O)NCCn1cnc2cnc(Nc3ncc(-c4ncccc4F)s3)cc21 [Example 26, (2S,3S)-1-[(E)-4-(dimethylamino)but-2-enoyl]-N-[2-[6-[[5-(3-fluoro-2-pyridyl)thiazol-2-yl]amino]imidazo[4,5-c]pyridin-1-yl]ethyl]-3-hydroxy-pyrrolidine-2-carboxamide]
